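A five-concentration, 48-hour dose response in 96-well plates underlies each endpoint, interpolated linearly between surrounding concentrations. GI50: concentration for 50% inhibition of growth.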 The source made the active and inactive calls. Rule as the data show it: active = GI50 up to about 1.1 µM and inactive = higher.
How the values were obtained:
Assay in all cases: DTP human tumour cell line panel, 48 h
OVCAR-8 = system: OVCAR-8
NCI-H522 = system: NCI-H522
SK-MEL-28 = system: SK-MEL-28
RXF 393 = system: RXF 393
IGROV-1 = system: IGROV-1
SF-539 = system: SF-539
OVCAR-3 = system: OVCAR-3
M14 = system: M14
SNB-19 = system: SNB-19
U-251 = system: U-251
TK-10 = system: TK-10
SF-268 = system: SF-268
SW-620 = system: SW-620
HCC 2998 = system: HCC 2998
NCI-H226 = system: NCI-H226
SR = system: SR

CN(C)CCC(/C=C/c1ccccc1)=N\Nc1ccccc1
GI50 (OVCAR-8): 10.7 µM (inactive) | GI50 (NCI-H522): 1.84 µM (inactive) | GI50 (SK-MEL-28): 1.8 µM (inactive) | GI50 (RXF 393): 5.83 µM (inactive) | GI50 (IGROV-1): 2.82 µM (inactive) | GI50 (SF-539): 1.82 µM (inactive) | GI50 (OVCAR-3): 2.33 µM (inactive) | GI50 (M14): 2.72 µM (inactive) | GI50 (SNB-19): 3.88 µM (inactive) | GI50 (U-251): 1.83 µM (inactive) | GI50 (TK-10): 1.6 µM (inactive) | GI50 (SF-268): 0.736 µM (active) | GI50 (SW-620): 0.335 µM (active)

CC(=O)O[C@H]1[C@H](O[C@H]2CC[C@]34C[C@]35CC[C@]3(C)[C@@H]([C@@]6(C)CC[C@@H](C(C)(C)O)O6)[C@@H](O)C[C@@]3(C)[C@@H]5C[C@H](O[C@@H]3O[C@H](CO)[C@@H](O)[C@H](O)[C@H]3O)[C@H]4C2(C)C)OC[C@@H](O)[C@@H]1O
GI50 (OVCAR-8): > 100 µM (inactive) | GI50 (NCI-H522): > 100 µM (inactive) | GI50 (SK-MEL-28): > 100 µM (inactive) | GI50 (HCC 2998): > 100 µM (inactive) | GI50 (RXF 393): > 100 µM (inactive) | GI50 (IGROV-1): > 100 µM (inactive) | GI50 (SF-539): 40.4 µM (inactive) | GI50 (NCI-H226): > 100 µM (inactive) | GI50 (OVCAR-3): > 100 µM (inactive) | GI50 (M14): 54.6 µM (inactive) | GI50 (SNB-19): > 100 µM (inactive) | GI50 (U-251): 55 µM (inactive) | GI50 (TK-10): > 100 µM (inactive) | GI50 (SF-268): > 100 µM (inactive) | GI50 (SW-620): 25.4 µM (inactive)

COc1ccc(C23c4ccc(OC)cc4CC2(c2ccc([N+](=O)[O-])cc2)Cc2cc(OC)ccc23)cc1 (centres undefined)
GI50 (OVCAR-8): > 36.7 µM (inactive) | GI50 (NCI-H522): > 59.8 µM (inactive) | GI50 (SK-MEL-28): > 17.9 µM (inactive) | GI50 (IGROV-1): > 21.5 µM (inactive) | GI50 (SF-539): > 14.2 µM (inactive) | GI50 (NCI-H226): > 57.1 µM (inactive) | GI50 (OVCAR-3): > 39.2 µM (inactive) | GI50 (M14): > 46.2 µM (inactive) | GI50 (SNB-19): > 71.4 µM (inactive) | GI50 (U-251): > 50.1 µM (inactive) | GI50 (TK-10): > 92.5 µM (inactive) | GI50 (SF-268): > 22.3 µM (inactive) | GI50 (SW-620): > 100 µM (inactive)

CC(=O)Oc1ccccc1 [ACETIC ACID PHENYL ESTER]
GI50 (OVCAR-8): > 100 µM (inactive) | GI50 (NCI-H522): > 100 µM (inactive) | GI50 (SK-MEL-28): > 100 µM (inactive) | GI50 (HCC 2998): > 10 µM (inactive) | GI50 (RXF 393): > 100 µM (inactive) | GI50 (IGROV-1): > 100 µM (inactive) | GI50 (SF-539): > 100 µM (inactive) | GI50 (NCI-H226): > 100 µM (inactive) | GI50 (OVCAR-3): > 100 µM (inactive) | GI50 (M14): > 100 µM (inactive) | GI50 (SNB-19): > 100 µM (inactive) | GI50 (U-251): > 100 µM (inactive) | GI50 (SF-268): > 100 µM (inactive) | GI50 (SW-620): > 100 µM (inactive)

COc1cc([C@@H]2c3cc4c(cc3[C@@H](NCc3cccc(F)c3)C3COC(=O)[C@@H]32)OCO4)cc(OC)c1O (some centres undefined)
GI50 (OVCAR-8): 6.53 µM (inactive) | GI50 (NCI-H522): 6.93 µM (inactive) | GI50 (SK-MEL-28): 8.61 µM (inactive) | GI50 (HCC 2998): 9.77 µM (inactive) | GI50 (RXF 393): 8.85 µM (inactive) | GI50 (IGROV-1): 3.18 µM (inactive) | GI50 (SF-539): 2.52 µM (inactive) | GI50 (NCI-H226): 1.03 µM (active) | GI50 (OVCAR-3): 12.2 µM (inactive) | GI50 (M14): 4.9 µM (inactive) | GI50 (SNB-19): 2.81 µM (inactive) | GI50 (U-251): 1.23 µM (inactive) | GI50 (TK-10): 9.68 µM (inactive) | GI50 (SF-268): 5.92 µM (inactive) | GI50 (SW-620): 5.06 µM (inactive)

COc1ccc([C@@]2(O)c3c(ccc(O)c3OC)[C@H]2OC)c(OC)c1
GI50 (OVCAR-8): 51.5 µM (inactive) | GI50 (NCI-H522): 28.8 µM (inactive) | GI50 (SK-MEL-28): 47.8 µM (inactive) | GI50 (HCC 2998): 44.2 µM (inactive) | GI50 (SR): 35.6 µM (inactive) | GI50 (IGROV-1): > 100 µM (inactive) | GI50 (NCI-H226): > 100 µM (inactive) | GI50 (OVCAR-3): 68.2 µM (inactive) | GI50 (M14): > 100 µM (inactive) | GI50 (SNB-19): > 100 µM (inactive) | GI50 (U-251): 45.8 µM (inactive) | GI50 (TK-10): 27.1 µM (inactive) | GI50 (SF-268): 75.9 µM (inactive) | GI50 (SW-620): 46.6 µM (inactive)

NC(=O)N/N=C/C(=C/Nc1ccccc1)[N+](=O)[O-]
GI50 (OVCAR-8): > 100 µM (inactive) | GI50 (NCI-H522): > 100 µM (inactive) | GI50 (SK-MEL-28): > 100 µM (inactive) | GI50 (HCC 2998): > 100 µM (inactive) | GI50 (RXF 393): > 100 µM (inactive) | GI50 (SR): > 100 µM (inactive) | GI50 (IGROV-1): > 100 µM (inactive) | GI50 (OVCAR-3): > 100 µM (inactive) | GI50 (M14): > 100 µM (inactive) | GI50 (SNB-19): > 100 µM (inactive) | GI50 (U-251): > 100 µM (inactive) | GI50 (TK-10): > 100 µM (inactive) | GI50 (SF-268): > 100 µM (inactive) | GI50 (SW-620): > 100 µM (inactive)

O=C(NC1C2CC3CC(C2)CC1C3)c1ccncn1 (centres undefined)
GI50 (OVCAR-8): > 100 µM (inactive) | GI50 (NCI-H522): > 100 µM (inactive) | GI50 (SK-MEL-28): > 100 µM (inactive) | GI50 (HCC 2998): > 100 µM (inactive) | GI50 (IGROV-1): > 100 µM (inactive) | GI50 (SF-539): > 100 µM (inactive) | GI50 (NCI-H226): > 100 µM (inactive) | GI50 (OVCAR-3): > 100 µM (inactive) | GI50 (M14): > 100 µM (inactive) | GI50 (SNB-19): > 100 µM (inactive) | GI50 (U-251): > 100 µM (inactive) | GI50 (SF-268): > 100 µM (inactive) | GI50 (SW-620): > 100 µM (inactive)

CC/C(C)=C1\CCC(CN2CCOCC2)C1=O (centres undefined)
GI50 (OVCAR-8): 20.7 µM (inactive) | GI50 (SK-MEL-28): 17.4 µM (inactive) | GI50 (HCC 2998): 24.2 µM (inactive) | GI50 (RXF 393): 6.78 µM (inactive) | GI50 (SR): 11.2 µM (inactive) | GI50 (IGROV-1): 20.4 µM (inactive) | GI50 (SF-539): 20.2 µM (inactive) | GI50 (NCI-H226): 82.2 µM (inactive) | GI50 (OVCAR-3): 15 µM (inactive) | GI50 (M14): 17.3 µM (inactive) | GI50 (SNB-19): 47.9 µM (inactive) | GI50 (TK-10): 14.5 µM (inactive) | GI50 (SF-268): 11.5 µM (inactive) | GI50 (SW-620): 15.1 µM (inactive)

O=C1CCC2(c3ccccc3)Nc3ncccc3N12 (centres undefined)
GI50 (OVCAR-8): > 100 µM (inactive) | GI50 (NCI-H522): > 100 µM (inactive) | GI50 (SK-MEL-28): > 100 µM (inactive) | GI50 (HCC 2998): > 100 µM (inactive) | GI50 (RXF 393): > 100 µM (inactive) | GI50 (IGROV-1): > 100 µM (inactive) | GI50 (SF-539): > 100 µM (inactive) | GI50 (NCI-H226): > 100 µM (inactive) | GI50 (OVCAR-3): > 100 µM (inactive) | GI50 (M14): > 100 µM (inactive) | GI50 (U-251): > 100 µM (inactive) | GI50 (TK-10): > 100 µM (inactive) | GI50 (SF-268): > 100 µM (inactive) | GI50 (SW-620): > 100 µM (inactive)
